What was measured:
[1] = system: BET family (BRD2, BRD3, BRD4 and BRDT) tandem bromodomain proteins, Tyrosine to Alanine mutants; experiment: Fluorescence Polarisation binding of Reference Compound X to single and double mutant tandem BET proteins; parameters: species or system Human
Experimental: The competition of the compounds of formula (I) with Reference Compound X for binding to the BET family (BRD2, BRD3, BRD4 and BRDT) was assessed using protein truncates spanning both bromodomain 1 (BD1) and bromodomain 2 (BD2). In order to monitor differential binding to either BD1 or BD2, single residue mutations of key tyrosines to alanine were made in the acetyl lysine binding pockets. To validate this approach, a double residue mutant tandem domain protein was produced for each of the BET family members. Utilising a Fluorescence Polarisation approach, binding affinities for each of the single and double mutants for Reference Compound X were determined. […] The affinities of the single mutated bromodomain tandem proteins for Reference Compound X were equi-potent with the corresponding non-mutated BET protein. […] Final purification was completed by Superdex 200 prep grade size exclusion column. Purified protein was stored at −80° C. in 20 mM HEPES pH 7.5 and 100 mM NaCl. Protein identity was confirmed by peptide mass fingerprinting and predicted molecular weight confirmed by mass spectrometry.

[2] = target: T1, BRD4 BD2 (Homo sapiens, UniProt O60885, Y97A); experiment: TR-FRET competition assay, BRD4 BD2 (single mutant tandem bromodomain protein); type: binding; details: for IC50: read-out: pIC50 in the BRD4 BD2 assay (converted); for selectivity for BRD4 BD2 over BRD4 BD1: Selectivity = BRD4 BD2 pIC50 - BRD4 BD1 pIC50, in at least one of the TR-FRET assays; for fold selective for BRD4 BD2 over BRD4 BD1: from the pIC50 difference BRD4 BD2 - BRD4 BD1
T1 construct: BRD4 (1-477) (Y97A) and (Y390A); made in house; host or cells: E. coli (pET15b vector)
Experimental: Time Resolved Fluorescence Resonance Energy Transfer (TR-FRET) Assay
Bromodomain binding was assessed utilising a time resolved fluorescent resonance energy transfer (TR-FRET) competition assay. To enable this approach a known, high affinity, pan-BET interacting small molecule was labelled with Alexa Fluor® 647, which is a far-red-fluorescent dye (Reference Compound X). Reference Compound X acts as a reporter of bromodomain binding and is the acceptor fluorophore component of the TR-FRET pair. Europium chelate, conjugated to an anti-6*His antibody, was utilised as the donor fluorophore in the TR-FRET pair. […] A TR-FRET signal is generated when the donor and acceptor fluorophores are in close proximity, between 20-80 Å, which is enabled in this assay by binding of Reference Compound X to the bromodomain protein.
If the acceptor fluorophore is in close proximity then energy transfer can occur, which leads to emission of Alexa Fluor® 647 at λ665 nm. In the presence of competitor compound, Reference Compound X can be displaced from binding to the bromodomain. If displacement occurs, the acceptor fluorophore is no longer in proximity to the donor fluorophore, which prevents fluorescent energy transfer and, subsequently, a loss of Alexa Fluor® 647 emission at λ665 nm.
The competition of the compounds of formula (I) with Reference Compound X for binding to the BET family (BRD2, BRD3, BRD4 and BRDT) was assessed using protein truncates spanning both bromodomain 1 (BD1) and bromodomain 2 (BD2). In order to monitor differential binding to either BD1 or BD2, single residue mutations of key tyrosines to alanine were made in the acetyl lysine binding pockets. To validate this approach, a double residue mutant tandem domain protein was produced for each of the BET family members. Utilising a Fluorescence Polarisation approach, binding affinities for each of the single and double mutants for Reference Compound X were determined. […] Final purification was completed by Superdex 200 prep grade size exclusion column. Purified protein was stored at −80° C. in 20 mM HEPES pH 7.5 and 100 mM NaCl.
Protocol for Bromodomain BRD2, 3, 4 and T, BD1+BD2 mutant TR-FRET competition assays:
All assay components were dissolved in an assay buffer composing of 50 mM HEPES pH7.4, 50 mM NaCl, 5% Glycerol, 1 mM DTT and 1 mM CHAPS. […] The solution containing bromodomain and Reference Compound X was added to dose response dilutions of test compound or DMSO vehicle (a maximum of 0.5% DMSO is used in this assay) in Greiner 384 well black low volume microtitre plates and subsequently incubated for 30 minutes at room temperature. An equal volume of 3 nM of anti-6*His Europium chelate was added to all wells, followed by a further 30 minute incubation at room temperature. TR-FRET was detected using a Perkin Elmer Multimode plate reader, by exciting the donor fluorophore at A337 nm and subsequently, after a delay of 50 μsecs, measuring emission of the donor and acceptor fluorophores at A615 nm and λ665 nm, respectively. In order to control these assays, 16 replicates each of uninhibited (DMSO vehicle) and inhibited (10*IC50 concentrations of Example 11 of WO 2011/054846A1) TR-FRET assays were included on every microtitre plate.
cA four parameter curve fit of the following form was then applied: y=a+((b−a)/(1+(10^x/10^c)^d)
Where ‘a’ is the minimum, ‘b’ is the Hill slope, ‘c’ is the pIC50 and ‘d’ is the maximum.

[3] = TR-FRET competition with Reference Compound X, values exemplary only

Compound	IC50 [2, 3]	further results
COc1ccc2c(c1)C(c1ccc(Cl)cc1)=N[C@@H](CC(=O)NCCCCCNC(=O)CCCCCC1(C)/C(=C/C=C/C=C/C3=[N+](CCCCS(=O)(=O)O)c4ccc(S(=O)(=O)O)cc4C3(C)C)N(CCCCS(=O)(=O)[O-])c3ccc(S(=O)(=O)O)cc31)c1nnc(C)n1-2 (stereo partly drawn) [Reference Compound X]	–	reduction in Kd (affinity) of double mutant tandem proteins in comparison to non mutated, wild type tandem BET proteins ([1]; double residue mutant tandem domain protein, each BET family member): > 1000 fold; reduction of the Kd of the interaction between the mutated bromodomain and Reference Compound X ([1]; single mutations of Tyrosine to Alanine): > 1000 fold
CNC(=O)c1cc(C(=O)NCC2CCCO2)cc(Cc2ccccc2)n1 (racemic) [Example 84, (+/−)-6-Benzyl-N^2-methyl-N^4-((tetrahydrofuran-2-yl)methyl)pyridine-2,4-dicarboxamide]	1000 to 10000 nM	–
CNC(=O)c1cc(C(=O)NCC2CCCCO2)cc(Cc2ccccc2)n1 (racemic) [Example 85, (+/−)-6-Benzyl-N^2-methyl-N^4-((tetrahydro-2H-pyran-2-yl)methyl)pyridine-2,4-dicarboxamide]	1000 to 10000 nM	–
CNC(=O)c1cc(C(=O)NCC2CCOCC2)cc(Cc2ccccc2)n1 [Example 87, 6-Benzyl-N^2-methyl-N^4-((tetrahydro-2H-pyran-4-yl)methyl)pyridine-2,4-dicarboxamide]	1000 to 10000 nM	–
CNC(=O)c1cc(C(=O)NCCCC2OCC(N)CO2)cc(C(OC)c2ccccc2)n1 [Example 161, N^4-(3-((2r,5S)-5-Amino-1,3-dioxan-2-yl)propyl)-6-((R*)-methoxy(phenyl)methyl)-N2-methylpyridine-2,4-dicarboxamide]	–	selectivity for BRD4 BD2 over BRD4 BD1 [2]: 3.2 log units; pIC50 in the BRD4 BD2 assay [2, 3]: 7.6 log10 units; fold selective for BRD4 BD2 over BRD4 BD1 [2]: at least 1000 fold
CNC(=O)c1cc(C(=O)NCC[C@H]2CNCCO2)cc(C(C)c2ccccc2)n1 (single isomer, unassigned) [Example 41, N^2-Methyl-N^4-(2-((S)-morpholin-2-yl)ethyl)-6-((S*)-1-phenylethyl)pyridine-2,4-dicarboxamide]	39.8 nM	selectivity for BRD4 BD2 over BRD4 BD1 [2]: 3.0 log units; fold selective for BRD4 BD2 over BRD4 BD1 [2]: at least 1000 fold

Further lines, with some results ahead:

IC50 [2, 3]	Compound	further results
1000 to 10000 nM	CNC(=O)c1cc(C(=O)N[C@H]2[C@@H]3COC[C@@H]32)cc([C@@H](CF)c2ccccc2)n1 (single isomer, unassigned) [Example 165, N^4-((1R,5S,6r)-3-Oxabicyclo[3.1.0]hexan-6-yl)-6-((S*)-2-fluoro-1-phenylethyl)-N^2-methylpyridine-2,4-dicarboxamide]	–
1000 to 10000 nM	CNC(=O)c1cc(C(=O)N[C@H]2[C@@H]3COC[C@@H]32)cc(C(CF)c2ccccc2)n1 (mixture of isomers) [Example 164, (+/−)-N^4-((1R,5S,6r)-3-Oxabicyclo[3.1.0]hexan-6-yl)-6-(2-fluoro-1-phenylethyl)-N^2-methylpyridine-2,4-dicarboxamide]	–
50.1 nM	CNC(=O)c1cc(C(=O)N[C@H]2[C@@H]3COC[C@@H]32)cc(Cc2cccc3c2CCN3)n1 [Example 130, N^4-((1R,5S,6r)-3-Oxabicyclo[3.1.0]hexan-6-yl)-6-(indolin-4-ylmethyl)-N^2-methylpyridine-2,4-dicarboxamide]	–
1000 to 10000 nM	CNC(=O)c1cc(C(=O)N[C@H]2[C@@H]3COC[C@@H]32)cc([C@H](CF)c2ccccc2)n1 (single isomer, unassigned) [Example 166, N^4-((1R,5S,6r)-3-Oxabicyclo[3.1.0]hexan-6-yl)-6-((R*)-2-fluoro-1-phenylethyl)-N^2-methylpyridine-2,4-dicarboxamide]	–

Source: patent US10934272B2, “Pyridyl derivatives as bromodomain inhibitors” (GlaxoSmithKline Intellectual Property (No. 2) Limited, priority 2016, dated 2021)
